Target: Replicase polyprotein 1ab (Severe acute respiratory syndrome coronavirus 2, UniProt P0DTD1)

## Cc1cc(C(=O)N[C@@H](C)C(=O)N[C@H](C(=O)N[C@@H](CC(C)C)C(=O)N[C@H](/C=C/C(=O)OCc2ccccc2)C[C@@H]2CCNC2=O)C(C)C)no1
  Ki: 9 µM
